One may read the IC50 as the midpoint of a concentration-inhibition curve. As usually defined, the EC50 is the concentration giving half of the maximal effect.

The structures appear in SMILES notation. Like-named read-outs stand apart in the source and are kept apart here. A value given as a limit tells only on which side of the number the result lay.

This is an account of results in patent US20230159511A1, “TETRAHYDROISOQUINOLINE COMPOUNDS AS NRF2 ACTIVATORS” (C4X Discovery Limited, priority 2020, published 2023).

Assay [1] addresses T1, human KEAP1 (N-term, residues 321-609) (Homo sapiens, UniProt Q14145).
T1 construct: human KEAP1 (N-term, residues 321-609)
Kind of assay: KEAP1 Kelch Fluorescence Polarization (FP) Assay. In kind it is binding. The note with it: inhibition of Kelch domain-NRF2 interaction; 2 nM FITC-labelled NRF2 peptide, 25 nM KEAP1, 1 h room temperature; compounds below 10 nM cannot be differentiated. The essentials: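 Compounds in 12-point curves (top 10 μM) displaced 2 nM FITC-labelled NRF2 peptide from 25 nM KEAP1 residues 321-609 over 1 h at room temperature. Polarization read at 470/530 nm, window set by 50 μM unlabelled peptide; four-parameter fit gave IC50, floor 10 nM.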
On the technique in general: Fluorescence polarisation rises when a labelled molecule tumbles more slowly, as on binding a larger partner.

In assay [2] the test system is NRF2 mediated gene NAD(P)H:quinone acceptor oxidoreductase 1 (NQO1) in BEAS-2B cells. Kind of assay: Beas2B NQO1 mRNA Cell Based Assay. The note with it: Homo sapiens. Details: species or system human. The gist of the method:
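BEAS-2B cells treated 24 h with compound; NQO1 mRNA measured by one-step TaqMan RT-PCR on crude lysates, normalised to beta actin by ΔΔCT. Fold increase over 0.1% DMSO vehicle; EC50 from four-parameter logistic fit.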

Setting [3] is: BEAS-2B cells, compound for 24 h, increase in NQO1 mRNA compared to vehicle (0.1% DMSO) control, read-out: EC50.

T1 sequence (Q14145 321-609): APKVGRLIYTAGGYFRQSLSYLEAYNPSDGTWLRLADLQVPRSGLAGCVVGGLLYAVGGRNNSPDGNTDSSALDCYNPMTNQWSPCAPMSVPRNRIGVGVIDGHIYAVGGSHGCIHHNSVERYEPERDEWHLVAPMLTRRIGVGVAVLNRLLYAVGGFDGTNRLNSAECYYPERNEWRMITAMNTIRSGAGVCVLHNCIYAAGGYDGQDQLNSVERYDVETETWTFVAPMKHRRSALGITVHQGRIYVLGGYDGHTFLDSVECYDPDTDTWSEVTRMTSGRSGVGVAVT

In turn, `CNC(=O)N1CCC[C@H]1C(=O)N1CCc2c(Cl)ccc(OCc3nnn(C)c3C(F)F)c2[C@H]1CN1CCCC1=O` [Example 67, (S)-2-((S)-5-chloro-8-((5-(difluoromethyl)-1-methyl-1H-1,2,3-triazol-4-yl)methoxy)-1-((2-oxopyrrolidin-1-yl)methyl)-1,2,3,4-tetrahydroisoquinoline-2-carbonyl)-N-methylpyrrolidine-1-carboxamide] displayed an IC50 in assay [1] of 29 nM. The compound further displayed an EC50 in assay [2] (BEAS-2B, 24 h) of 1360 nM.

Turning to `CNC(=O)[C@@]1(C)CCCC[C@H]1C(=O)N1CCc2c(Cl)cc(F)c(OCc3cn(C)nn3)c2[C@H]1CN1CC2(CC2)CC1=O` [Example 110, (1S,2R)-2-((S)-5-chloro-7-fluoro-8-((1-methyl-1H-1,2,3-triazol-4-yl)methoxy)-1-((6-oxo-5-azaspiro[2.4]heptan-5-yl)methyl)-1,2,3,4-tetrahydroisoquinoline-2-carbonyl)-N,1-dimethylcyclohexane-1-carboxamide], the IC50 in assay [1] turned out to be 7.1 nM. The EC50 in assay [2] (setting [3]) was determined as 66 nM.

Take `CNC(=O)[C@@]1(C)CCCC[C@H]1C(=O)N1CCc2c(Cl)ccc(OCc3nnn(C)c3C(F)F)c2[C@H]1CN1CCC(C)C1=O` (single isomer, unassigned) [Example 96]: in assay [1], half-maximal inhibition (IC50) was put at 37 nM. Besides, the EC50 in assay [2] (setting [3]) was 3190 nM.

As to `CNC(=O)[C@@]1(C)CCCC[C@H]1C(=O)N1CCc2c(Cl)ccc(OCc3cn(C)nn3)c2[C@H]1CN1CCCC1=O` [Example 93, (1S,2R)-2-((S)-5-chloro-8-((1-methyl-1H-1,2,3-triazol-4-yl)methoxy)-1-((2-oxopyrrolidin-1-yl)methyl)-1,2,3,4-tetrahydroisoquinoline-2-carbonyl)-N,1-dimethylcyclohexane-1-carboxamide], the IC50 in assay [1] stood at 851 nM. In assay [2] (setting [3]), the half-maximal effective concentration (EC50) was over 10000 nM.

On to `CNC(=O)[C@@]1(C)CCCC[C@H]1C(=O)N1CCc2c(Cl)ccc(OCc3noc4ccccc34)c2[C@H]1CN1CCCC1=O` [Example 83, (1S,2R)-2-((S)-8-(benzo[d]isoxazol-3-ylmethoxy)-5-chloro-1-((2-oxopyrrolidin-1-yl)methyl)-1,2,3,4-tetrahydroisoquinoline-2-carbonyl)-N,1-dimethylcyclohexane-1-carboxamide], for which, in assay [1], half-maximal inhibition (IC50) required 12 nM. In addition, the EC50 in assay [2] (setting [3]) worked out at 473 nM.

`NC(=O)[C@H]1CCCC[C@H]1C(=O)N1CCc2c(Cl)ccc(OCc3noc4ccccc34)c2[C@H]1CN1CCCC1=O` [Example 54, (1S,2R)-2-((S)-8-(benzo[d]isoxazol-3-ylmethoxy)-5-chloro-1-((2-oxopyrrolidin-1-yl)methyl)-1,2,3,4-tetrahydroisoquinoline-2-carbonyl)cyclohexane-1-carboxamide, reference compound]: the IC50 in assay [1] turned out to be 31 nM. For the same compound, the EC50 in assay [2] (setting [3]) was 135 nM.

In the case of `CNC(=O)[C@H]1CCCC[C@H]1C(=O)N1CCc2c(Cl)ccc(OCc3nnc4ccccn34)c2[C@H]1CN1Cc2ccccc2C1=O` [Example 77, (1S,2R)-2-((S)-8-([1,2,4]triazolo[4,3-a]pyridin-3-ylmethoxy)-5-chloro-1-((1-oxoisoindolin-2-yl)methyl)-1,2,3,4-tetrahydroisoquinoline-2-carbonyl)-N-methylcyclohexane-1-carboxamide], in assay [1], the concentration for half-maximal inhibition (IC50) is 7.2 nM. In addition, the EC50 in assay [2] (setting [3]) was 77 nM.

In assay [1], `CNC(=O)[C@@]1(C)CCCC[C@H]1C(=O)N1CCc2c(Cl)ccc(OCc3nnn(C)c3C(F)(F)F)c2[C@H]1CN1CCCC1=O` [Example 91, (1S,2R)-2-((S)-5-chloro-8-((1-methyl-5-(trifluoromethyl)-1H-1,2,3-triazol-4-yl)methoxy)-1-((2-oxopyrrolidin-1-yl)methyl)-1,2,3,4-tetrahydroisoquinoline-2-carbonyl)-N,1-dimethylcyclohexane-1-carboxamide] came in with an IC50 of 9.8 nM. Also, the EC50 in assay [2] (setting [3]) came to 607 nM.

`Cn1nnc(COc2ccc(Cl)c3c2[C@@H](CN2CCCC2=O)N(C(=O)[C@@H]2CCCCN2C(=O)C(F)F)CC3)c1C(F)F` [Example 84] gave an IC50 in assay [1] of 161 nM. Also, in assay [2] (BEAS-2B, 24 h), a half-maximal effect (EC50) was put at 1530 nM.

The compound `CNC(=O)[C@@]1(C)CCCC[C@H]1C(=O)N1CCc2c(Cl)ccc(OCc3nnn(C)c3C)c2[C@H]1CN1CCCC1=O` [Example 90, (1S,2R)-2-((S)-5-chloro-8-((1,5-dimethyl-1H-1,2,3-triazol-4-yl)methoxy)-1-((2-oxopyrrolidin-1-yl)methyl)-1,2,3,4-tetrahydroisoquinoline-2-carbonyl)-N,1-dimethylcyclohexane-1-carboxamide] had an IC50 in assay [1] of 7.9 nM. For the same compound, the half-maximal effective concentration (EC50) in assay [2] (setting [3]) came to 94 nM.

`CNC(=O)[C@H]1CCCC[C@H]1C(=O)N1CCc2c(Cl)ccc(OCc3ccc4c(C)noc4n3)c2[C@H]1CN1CCCC1=O` [Example 71, (1S,2R)-2-((S)-5-chloro-8-((3-methylisoxazolo[5,4-b]pyridin-6-yl)methoxy)-1-((2-oxopyrrolidin-1-yl)methyl)-1,2,3,4-tetrahydroisoquinoline-2-carbonyl)-N-methylcyclohexane-1-carboxamide] had an IC50 in assay [1] of 17 nM. Besides, the EC50 in assay [2] (setting [3]) is 116 nM.

In assay [1], `CNC(=O)[C@H]1CCCC[C@H]1C(=O)N1CCc2c(Cl)ccc(OCc3nnc4ccccn34)c2[C@H]1CN1CCCC1=O` [Example 73, (1S,2R)-2-((S)-8-([1,2,4]triazolo[4,3-a]pyridin-3-ylmethoxy)-5-chloro-1-((2-oxopyrrolidin-1-yl)methyl)-1,2,3,4-tetrahydroisoquinoline-2-carbonyl)-N-methylcyclohexane-1-carboxamide] showed an IC50 of 9.4 nM. The EC50 in assay [2] (setting [3]) amounted to 288 nM.

For the compound `O=C(NCC(F)(F)CO)[C@H]1CCCC[C@H]1C(=O)N1CCc2c(Cl)ccc(OCc3noc4ccccc34)c2[C@H]1CN1CCCC1=O` [Example 78, (1S,2R)-2-((S)-8-(benzo[d]isoxazol-3-ylmethoxy)-5-chloro-1-((2-oxopyrrolidin-1-yl)methyl)-1,2,3,4-tetrahydroisoquinoline-2-carbonyl)-N-(2,2-difluoro-3-hydroxypropyl)cyclohexane-1-carboxamide], the IC50 in assay [1] came to 110 nM. Moreover, in assay [2] (setting [3]), the EC50 was over 10000 nM.

In assay [1], `CNC(=O)[C@H]1CCCC[C@H]1C(=O)N1CCc2c(Cl)ccc(OCc3noc(C(C)C)n3)c2[C@H]1CN1CCCC1=O` [Example 57, (1S,2R)-2-((S)-5-chloro-8-((5-isopropyl-1,2,4-oxadiazol-3-yl)methoxy)-1-((2-oxopyrrolidin-1-yl)methyl)-1,2,3,4-tetrahydroisoquinoline-2-carbonyl)-N-methylcyclohexane-1-carboxamide] yielded an IC50 of 112 nM. Moreover, the EC50 in assay [2] (setting [3]) stood at 4000 nM.

In turn, `CNC(=O)[C@H]1CCCC[C@H]1C(=O)N1CCc2c(Cl)ccc(OCc3nnn(C)c3C(F)F)c2[C@H]1CN1CC2(CC2)CC1=O` [Example 114, (1S,2R)-2-((S)-5-chloro-8-((5-(difluoromethyl)-1-methyl-1H-1,2,3-triazol-4-yl)methoxy)-1-((6-oxo-5-azaspiro[2.4]heptan-5-yl)methyl)-1,2,3,4-tetrahydroisoquinoline-2-carbonyl)-N-methylcyclohexane-1-carboxamide] showed an IC50 in assay [1] of 9.1 nM. The EC50 in assay [2] (setting [3]) worked out at 230 nM.

`CNC(=O)[C@H]1CCCC[C@H]1C(=O)N1CCc2cccc(O[C@H]3CCN(C(=O)c4cncs4)C3)c2[C@H]1CN1C(=O)c2ccccc2C1=O` [Example 17, (1S,2R)-2-((S)-1-((1,3-dioxoisoindolin-2-yl)methyl)-8-(((S)-1-(thiazole-5-carbonyl)pyrrolidin-3-yl)oxy)-1,2,3,4-tetrahydroisoquinoline-2-carbonyl)-N-methylcyclohexane-1-carboxamide]: in assay [1], the IC50 is 28 nM. Besides, the EC50 in assay [2] (setting [3]) came out at 3070 nM.

The compound `CCNC(=O)[C@H]1CCCC[C@H]1C(=O)N1CCc2c(Cl)ccc(OCc3noc4ccccc34)c2[C@H]1CN1CCCC1=O` [Example 53, (1S,2R)-2-((S)-8-(benzo[d]isoxazol-3-ylmethoxy)-5-chloro-1-((2-oxopyrrolidin-1-yl)methyl)-1,2,3,4-tetrahydroisoquinoline-2-carbonyl)-N-ethylcyclohexane-1-carboxamide] returned an IC50 in assay [1] of 47 nM. Also, in assay [2] (setting [3]), the EC50 was 189 nM.

`CNC(=O)[C@@]1(C)CCC[C@H]1C(=O)N1CCc2c(Cl)ccc(OCc3nnn(C)c3C(F)F)c2[C@H]1CN1CCCC1=O` [Example 85, (1S,2R)-2-((S)-5-chloro-8-((5-(difluoromethyl)-1-methyl-1H-1,2,3-triazol-4-yl)methoxy)-1-((2-oxopyrrolidin-1-yl)methyl)-1,2,3,4-tetrahydroisoquinoline-2-carbonyl)-N,1-dimethylcyclopentane-1-carboxamide]: 7.8 nM corresponded to half-maximal inhibition in assay [1] (IC50). The EC50 in assay [2] (setting [3]) was found to be 330 nM.

In the case of `CNC(=O)[C@H]1CCCC[C@H]1C(=O)N1CCc2c(Br)ccc(OCc3noc(C(C)C)n3)c2[C@H]1CN1CCCC1=O` [Example 55, (1S,2R)-2-((S)-5-bromo-8-((5-isopropyl-1,2,4-oxadiazol-3-yl)methoxy)-1-((2-oxopyrrolidin-1-yl)methyl)-1,2,3,4-tetrahydroisoquinoline-2-carbonyl)-N-methylcyclohexane-1-carboxamide], it took 54 nM to reach half-maximal inhibition in assay [1] (IC50). Also, the EC50 in assay [2] (setting [3]) is 330 nM.

With `CNC(=O)C1OCCC1C(=O)N1CCc2c(Cl)ccc(OCc3nnn(C)c3C(F)F)c2[C@H]1CN1CCCC1=O` (single isomer, unassigned) [Example 82], the IC50 in assay [1] amounted to 4070 nM. For the same compound, the EC50 in assay [2] (setting [3]) came out at 1740 nM.
